Laboratory results: PubChem BioAssay (NCI)
Where “and” joins values, the source holds several entries; their conditions need not be identical. Equal entries are not always repeated.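 Assay format: 96-well plates, 48-hour exposure. GI50: concentration for 50% inhibition of growth. At the TGI there is no net growth.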

What was measured:
Experiment in all cases: NCI anticancer screen, dose series, 48 h
NCI-H226 lung = system: NCI-H226 lung
M14 melanoma = system: M14 melanoma
HCC-2998 colon = system: HCC-2998 colon
K-562 leukemia = system: K-562 leukemia
UACC-62 melanoma = system: UACC-62 melanoma
SF-295 CNS = system: SF-295 CNS
HOP-92 NSCLC = system: HOP-92 NSCLC
SR leukemia = system: SR leukemia
HS 578T breast = system: HS 578T breast
MCF7 breast = system: MCF7 breast

Row | Compound | TGI (NCI-H226 lung) [µM] | TGI (M14 melanoma) [µM] | TGI (HCC-2998 colon) [µM] | TGI (K-562 leukemia) [µM] | TGI (UACC-62 melanoma) | TGI (SF-295 CNS) | TGI (HOP-92 NSCLC) [µM] | TGI (SR leukemia) [µM] | GI50 (NCI-H226 lung) [µM] | GI50 (M14 melanoma) [µM] | GI50 (K-562 leukemia) [µM] | GI50 (UACC-62 melanoma) [µM] | GI50 (SF-295 CNS) [µM] | TGI (HS 578T breast) [µM] | TGI (MCF7 breast) [µM] | GI50 (HCC-2998 colon) [µM] | GI50 (HOP-92 NSCLC) [µM] | GI50 (SR leukemia) [µM] | GI50 (HS 578T breast) [µM] | GI50 (MCF7 breast) [µM]
1 | Cn1c(=O)nc2n(-c3cccc(F)c3)c3ccccc3nc-2c1=O | > 100 | 67.1 | 39.6 | 58.1 | 13 µM | > 100 µM | – | – | – | – | – | – | – | – | – | – | – | – | – | –
2 | CO/C1=C\C(C)=C\C(C)C(O)C(C)C/C(C)=C/C=C/C(OC)C(C(C)C(O)C(C)C2(O)CC(O)C(C)C(C(C)C)O2)OC1=O (stereo unspecified) | – | 0.00127 | 12.2 | 13.7 | 0.00785 µM and 0.0254 µM | 0.0215 µM and 0.0198 µM | 0.0225 | – | – | – | – | – | – | – | – | – | – | – | – | –
3 | Cc1c(C(=O)NCCO)[n+](=O)c2cc(Cl)ccc2n1[O-] | – | > 100 | > 100 | > 100 | > 100 µM | > 100 µM | > 100 | > 100 | – | – | – | – | – | – | – | – | – | – | – | –
4 | CC1(C)OC(=O)C=C([O-])O1.CC1(C)OC(=O)C=C([O-])O1.O=S(=O)([O-])c1ccc([O-])c2ncccc12.O=S(=O)([O-])c1ccc([O-])c2ncccc12.[Ti+4] | > 100 | > 100 | – | > 100 | > 100 µM | > 100 µM | – | – | > 100 | 69.2 | > 100 | 79.9 | > 100 | – | – | – | – | – | – | –
5 | Cc1ccc(S(=O)(=O)NC(=O)NC23CC4CC(CC(F)(C4)C2)C3)cc1 | – | > 100 | > 100 | > 100 | > 100 µM | – | > 100 | – | – | – | – | – | – | – | – | – | – | – | – | –
6 | NNc1nc2ccccc2c(=O)n1NC(=O)C(=O)Nc1cccc(C(F)(F)F)c1 | > 100 | > 100 | > 100 | > 100 | > 100 µM | > 100 µM | > 100 | – | – | – | – | – | – | > 100 | > 100 | – | – | – | – | –
7 | CC(=O)OC1CC2C(C)(C)C(=O)C=C[C@]2(C)C2CCC3(C)C(c4ccoc4)C(=O)[C@H]4O[C@]43[C@]12C (stereo partly specified) | 50.4 | 82.4 | 32.2 | 59.5 | 64.2 µM | – | 34.4 | – | – | – | – | – | – | – | – | – | – | – | – | –
8 | NC(=O)N/N=C/C(/C=N/NC(N)=O)[N+](=O)[O-] | > 100 | > 100 | – | > 100 | > 100 µM | > 100 µM | > 100 | – | – | – | – | – | – | – | – | – | – | – | – | –
9 | CCCCCC(=O)c1ccc2[nH]c3c(C)cc([N+](=O)[O-])c(C)c3c2c1 | > 100 | > 100 | > 100 | 92.5 | – | > 100 µM | – | > 100 | – | – | – | – | – | – | – | – | – | – | – | –
10 | COc1ccc2c(c1OC)C1=C(C2=O)c2cc3c(cc2CCN1)OCO3 | 9.58 | > 100 | 75.5 | 87.8 | > 100 µM | > 100 µM | > 100 | 55 | – | – | – | – | – | – | – | – | – | – | – | –
11 | CCNC(=O)C#CC(=O)NCC | > 100 | > 100 | > 100 | > 70.2 | > 100 µM | > 100 µM | > 100 | > 61.4 | > 100 | > 10 | > 10 | > 10 | > 10 | – | – | > 10 | > 10 | > 10 | – | –
12 | COc1ccc(C(N)=O)cc1N=NN(C)C | > 100 | > 100 | > 100 | > 100 | > 100 µM | > 100 µM | > 100 | > 100 | – | – | – | – | – | – | – | – | – | – | – | –
13 | CN1NC2(CCCCC2)ON=C1c1ccccc1 | > 100 | > 100 | – | > 100 | > 100 µM | > 100 µM | > 100 | > 100 | – | – | – | – | – | – | – | – | – | – | – | –
14 | CN(C)CCCN1c2nc3ccccc3cc2Sc2cc3ccccc3nc21 | 4.03 | 3.23 | 3.26 | > 100 | 2.8 µM | 2.81 µM | 1.42 | – | 1.46 | 1.69 | 0.639 | 1.46 | 1.39 | 2.91 | 2.18 | 1.65 | 0.332 | – | 1.37 | 0.859
15 | O=C1C[C@@H]2C(COC(=O)c3ccccc3)N(OCc3ccccc3)C[C@@H]2O1 (stereo partly specified) | > 100 | > 100 | > 100 | > 100 | > 100 µM | – | – | > 100 | – | – | – | – | – | – | – | – | – | – | – | –
16 | COc1cc2c3c(n(CCCNCCN)c(=O)c2cc1OC)-c1cc2c(cc1C3=O)OCO2 | 2.55 | 5.26 | – | 3.77 | 2.64 µM | 20.3 µM | 15.6 | – | 1.1 | 0.738 | 0.601 | 1.01 | 1.24 | 4.76 | > 100 | – | 2.31 | – | 0.419 | 0.616
17 | N=c1nnc(=O)c2c(s1)-n1ncc(C(=O)O)c1NN2 | – | > 100 | – | > 100 | > 100 µM | > 100 µM | > 100 | > 100 | – | – | – | – | – | – | – | – | – | – | – | –
